Data published in patent US9144251B2, “High-potency sweetener composition with mineral and compositions sweetened therewith” (The Coca-Cola Company, priority 2005, dated 2015).

Test: Sensory evaluation of sweetness linger and sugar-like taste by a panel of experts (Example Sets G and H)
Format: in vivo
Parameters: key: 0=no sweetness linger; 1 very slight sweetness linger; 2=slight sweetness linger; 3 moderate sweetness linger; 4=moderately high sweetness linger; 5=high sweetness linger
Settings: scale 0-5; for Sweetness Linger rating (defined anchors of the scale): sucrose, 500 ppm of REBA control sample
Protocol: Sensory evaluation of the samples prepared in Example Set G was carried out under the following protocol, similar to that described hereinabove. In this test protocol, none of the samples were swallowed. All samples were expectorated and the mouth was rinsed with water after the tasting. Immediately upon sensing maximal sweetness, the sample was expectorated, the mouth was rinsed with water and the rate of sweetness decay (“Sweetness Linger”) was measured, where attention was focused on the sweetness 3-4 min after the water rinse. After sample tasting was complete, a salty oyster cracker was chewed followed by a water rinse, and at least 5 minutes followed before tasting the next sample. The sweetness linger was rated by a panel of experts in the sensory evaluation of foods and beverages using the following scale: 0=no sweetness linger, 1 very slight sweetness linger, 2=slight sweetness linger, 3 moderate sweetness linger, 4=moderately high sweetness linger, 5=high sweetness linger.
The “Sweetness Linger” rating for sucrose observed by this protocol is defined as 0. The Sweetness Linger of a 500 ppm of REBA control sample is defined as 5. Experimental samples were tasted by the same protocol, always allowing sufficient time between samples to ensure re-equilibration of the sensory system. Re-tasting of control samples during the course of the experiment was allowed and encouraged.
The comparison taste test was performed between two controls and addition of sweet taste improving additive on the onset and/or sweetness linger.
Sweet taste improving compositions were combined with a REBA solution to determine their effect on sweetness linger. Screening of the initial sample, or further dilutions, allowed identification of concentrations which were just above-threshold, herein defined as “near-threshold concentrations.” The near-threshold additive concentrations, a 6- to 100-fold higher higher additive concentration (depending on the off-taste intensity), and a mid-level additive concentration (halfway between the near-threshold and higher additive concentration) were evaluated to determine the effect on sweetness linger of a REBA solution.
Formulations of a 500 ppm REBA in a phosphoric acid solution (75%) at a pH of 2.5 with phosphoric acid or a pH of 3.1 with citric acid and potassium citrate were prepared prior to the addition of the additives at the three levels of concentration.
Sensory evaluation using the protocol described in Example Set G then was used to evaluate the sweetness linger of the REBA solutions.

Compound | sweetness linger rating, control sample (400 ppm REBA in citric acid/potassium citrate composition equivalent to diet lemon-lime beverage, no additive) | sweetness linger rating, control sample (500 ppm in carbon-treated water, phosphoric acid (75%) to pH 2.4-2.5, no additive) | Sweetness Linger rating (defined anchors of the scale) | sweetness linger rating, control sample (8 g of sugar in 100 ml of citrate buffer) | sweetness linger rating, control sample (10 g of sugar in 100 ml carbon treated water, phosphoric acid (75%) to pH 2.4-2.5)
rebaudioside A | 5 | 5 | 5 | – | –
OC[C@H]1O[C@@](CO)(O[C@H]2O[C@H](CO)[C@@H](O)[C@H](O)[C@H]2O)[C@@H](O)[C@@H]1O [sugar, sucrose] | – | – | 0 | 0 | 0
